For test [1], the target named is T1, Cloned human M1 receptor (CHRM1) stably expressed in HEK293 cells (Homo sapiens, UniProt P11229).
T1 construct: expressed in transfected cells; host or cells: HEK293
T1 sequence (P11229 1-460): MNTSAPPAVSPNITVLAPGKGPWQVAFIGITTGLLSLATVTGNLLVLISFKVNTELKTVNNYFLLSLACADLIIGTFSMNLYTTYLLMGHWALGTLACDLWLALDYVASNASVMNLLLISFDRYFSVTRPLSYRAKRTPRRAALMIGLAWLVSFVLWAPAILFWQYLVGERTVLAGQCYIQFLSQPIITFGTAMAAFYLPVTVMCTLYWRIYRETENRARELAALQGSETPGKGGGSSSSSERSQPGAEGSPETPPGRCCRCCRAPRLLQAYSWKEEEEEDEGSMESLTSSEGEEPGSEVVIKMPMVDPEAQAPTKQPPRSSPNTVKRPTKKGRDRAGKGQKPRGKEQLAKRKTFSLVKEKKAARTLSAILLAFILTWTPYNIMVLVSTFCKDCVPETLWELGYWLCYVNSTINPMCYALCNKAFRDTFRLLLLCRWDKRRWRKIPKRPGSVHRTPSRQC
Description: CHRM1 Ca++ Flux Assay (agonist mode, FDSS 7000EX). Type of test: cell-based. The conditions noted are these: for M1 FDSS PA: Percent Activity; for EC50: geometric mean if tested more than once; for Emax: HEK293, Percent Activity, read-out: M1 FDSS PA. As for the experimental part: The above examples were characterized by measuring the intracellular mobilization of Ca++ ions caused by signaling events mediated by the receptor. The Intra-cellular Calcium flux levels were captured by the highly sensitive Ca++ indicator, Calcium Assay Kit (BD Biosciences, Catalog Number 640178). The fluorescent activity from all receptors were monitored by the fluorescent imager, FDSS 7000EX (Hamamatsu) over a span of 3 minutes.
Cloned human M1 receptor (CHRM1) was stably expressed in HEK293 cells and were grown and maintained in a monolayer culture with DMEM/High Glucose (Life Technologies) supplemented with 10% Fetal Bovine Serum, 1× Pen-Strep, and 0.5 mg/mL Geneticin in a humidified atmosphere (5% CO2) at 37° C. The cultures were grown to 90% confluency in T150 flasks (Corning) and washed with 1×DPBS and lifted with 0.05% Trypsin (Life Technologies). The cells were then spun (1K rpm, 3 minutes) and frozen using Recovery Cell Culture Freezing Media (Gibco Technologies). Cells were stored in liquid nitrogen and thawed a day before the assay.
Prior to the day of the assay, stable HEK293 M1 cells were thawed and plated on 384 well black walled clear bottom TC treated plates (Greiner Cat #781091) at 25K cells/well with DMEM/High Glucose supplemented with 10% FBS (Hyclone) Pen-Strep (Life Technologies) and kept overnight in a humidified atmosphere (5% CO2) at 37° C. The following day, cells were loaded with 20 uL Ca^++ dye (BD Biosciences) using Loading Buffer (HBSS +Ca/+Mg, 20 mM HEPES) and placed back in cell incubator for a minimum of 1 hour. The dye was replaced with 45 μL Assay Buffer (HBSS −Ca/−Mg, 20 mM HEPES) and kept at room temperature prior to running on cell imager. Compounds were prepared in Assay Buffer and 5 uL was added to the cells. The FDSS 7000EX (Hamamatsu) was used to acquire Ca++ traces for 3 minutes from cells treated with 11 point dose in triplicate in order to generate dose response curves in agonist mode. All compounds were serially diluted in DMSO then prepared in Assay Buffer for Ca^++ flux studies. The dose response curves were generated from the average of triplicate wells obtained from each data point and used a non-linear regression of four parameter dose response algorithm. The Percent Activity (PA) was measured to EC100 of Carbachol.

For test [2], the target named is T2, human cloned CHRM5 receptor (M5_CHO) (Homo sapiens, UniProt P08912).
T2 construct: expressed in transfected cells; host or cells: CHO (M5_CHO)
T2 sequence (P08912 1-532): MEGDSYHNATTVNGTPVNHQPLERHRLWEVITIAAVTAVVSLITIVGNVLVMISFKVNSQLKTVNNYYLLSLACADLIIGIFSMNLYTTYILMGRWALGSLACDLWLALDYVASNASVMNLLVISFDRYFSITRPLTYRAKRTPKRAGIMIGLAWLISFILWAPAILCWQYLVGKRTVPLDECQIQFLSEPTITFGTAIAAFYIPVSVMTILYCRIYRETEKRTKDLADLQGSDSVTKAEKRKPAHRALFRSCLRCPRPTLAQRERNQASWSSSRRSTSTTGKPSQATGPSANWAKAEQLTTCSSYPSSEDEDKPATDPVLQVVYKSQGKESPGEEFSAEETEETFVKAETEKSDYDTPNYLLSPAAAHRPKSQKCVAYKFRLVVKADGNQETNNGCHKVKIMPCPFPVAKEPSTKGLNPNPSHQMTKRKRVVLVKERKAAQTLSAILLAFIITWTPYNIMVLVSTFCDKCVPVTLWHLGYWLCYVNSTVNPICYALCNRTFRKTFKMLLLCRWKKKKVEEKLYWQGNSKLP
Description: CHRM5 Ca++ Flux Assay (agonist mode, FDSS 7000EX). Type of test: cell-based. The conditions noted are these: for M5 FDSS PA / Emax: Percent Activity measured to EC100 of Carbachol; for EC50: agonist mode, geometric mean if tested more than once, read-out: M5 FDSS EC50; for Emax: read-out: M5 FDSS PA. The method in brief: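 Agonist-mode calcium flux: 11-point dose responses, triplicate wells, fluorescence followed for 3 minutes. Cells are M3_CHO or M5_CHO lines (human receptors) with Ca++ indicator in probenecid-containing HEPES/HBSS buffer. Percent activity is referenced to carbachol EC100, and curves come from four-parameter nonlinear regression.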

The term EC50 denotes the midpoint of the concentration-response curve.

Consider `O=C(N1CC2(CC[C@@H](N3CCC(c4ccccc4OCC4CCOCC4)CC3)C2)C1)C1(F)CC1` (single isomer, unassigned) [Example 7Q, (R)-(1-fluorocyclopropyl)(6-(4-(2-((tetrahydro-2H-pyran-4-yl)methoxy)phenyl)piperidin-1-yl)-2-azaspiro[3.4]octan-2-yl)methanone or (S)-(1-fluorocyclopropyl)(6-(4-(2-((tetrahydro-2H-pyran-4-yl)methoxy)phenyl)piperidin-1-yl)-2-azaspiro[3.4]octan-2-yl)methanone], for which, in test [1], the “M1 FDSS PA” value was 37% and the EC50 worked out at 135 nM. Also, in test [2], the “M5 FDSS PA” value turned out to be 0% and the EC50 was above 25 µM.
Taken in the same sequence, the figures for `OC1CCC(c2ccccc2C2CCN([C@@H]3CCC4(C3)CN(c3nnco3)C4)CC2)CC1` (single isomer, unassigned) [Example 2O, (1s,4r)-4-(2-(1-((R)-2-(1,3,4-oxadiazol-2-yl)-2-azaspiro[3.4]octan-6-yl)piperidin-4-yl)phenyl)cyclohexan-1-ol or (1r,4r)-4-(2-(1-((R)-2-(1,3,4-oxadiazol-2-yl)-2-azaspiro[3.4]octan-6-yl)piperidin-4-yl)phenyl)cyclohexan-1-ol] were 77%, 81 nM, 0% and above 25 µM.
For `COc1ccccc1C1CCN([C@@H]2CCC3(C2)CN(c2cnccn2)C3)CC1` [Example 5H, (R)-6-(4-(2-methoxyphenyl)piperidin-1-yl)-2-(pyrazin-2-yl)-2-azaspiro[3.4]octane], the results for the Emax in test [1] and in test [2] were 50% and 0%, respectively. Moreover, the EC50 in test [1] was 48 nM; in test [2], above 25 µM.
Turning to `COc1ccccc1C1CCN([C@@H]2CCC3(C2)CN(c2cccnn2)C3)CC1` [Example 5O, (R)-6-(4-(2-methoxyphenyl)piperidin-1-yl)-2-(pyridazin-3-yl)-2-azaspiro[3.4]octane], in test [1], the Emax is 27% and the EC50 amounted to 1340 nM. Besides, in test [2], the Emax came to 0% and the EC50 was above 25 µM.
Taken in the same sequence, the figures for `COc1ccccc1C1CCN([C@@H]2CCC3(C2)CN(c2cncnc2)C3)CC1` [Example 5A, (R)-6-(4-(2-methoxyphenyl)piperidin-1-yl)-2-(pyrimidin-5-yl)-2-azaspiro[3.4]octane] were 64%, 105 nM, 0% and above 25 µM.
For `O=C(N1CC2(CC[C@@H](N3CCC(c4ccccc4OC(F)(F)F)CC3)C2)C1)C1(F)CC1` (single isomer, unassigned) [Example 9A, (R)-(1-fluorocyclopropyl)(6-(4-(2-(trifluoromethoxy)phenyl)piperidin-1-yl)-2-azaspiro[3.4]octan-2-yl)methanone or (S)-(1-fluorocyclopropyl)(6-(4-(2-(trifluoromethoxy)phenyl)piperidin-1-yl)-2-azaspiro[3.4]octan-2-yl)methanone], in test [1], the “M1 FDSS PA” value worked out at 43% and the EC50 was found to be 2650 nM. In addition, in test [2], the “M5 FDSS PA” value came to 0% and the EC50 was above 25 µM.
On to `COc1ccc(Cl)cc1C1CCN([C@H]2CCC3(C2)CN(C(=O)C2(F)CC2)C3)CC1` (single isomer, unassigned) [Example 8B, (S)-(6-(4-(5-chloro-2-methoxyphenyl)piperidin-1-yl)-2-azaspiro[3.4]octan-2-yl)(1-fluorocyclopropyl)methanone or (R)-(6-(4-(5-chloro-2-methoxyphenyl)piperidin-1-yl)-2-azaspiro[3.4]octan-2-yl)(1-fluorocyclopropyl)methanone], for which, in test [1], the “M1 FDSS PA” value was found to be 63% and the EC50 came out at 30 nM. Further, in test [2], the “M5 FDSS PA” value was found to be 0% and the EC50 is above 25 µM.
As to `FC(F)(F)Oc1ccccc1C1CCN([C@@H]2CCC3(C2)CN(c2nncs2)C3)CC1` (single isomer, unassigned) [Example 10M, (R)-2-(6-(4-(2-(trifluoromethoxy)phenyl)piperidin-1-yl)-2-azaspiro[3.4]octan-2-yl)-1,3,4-thiadiazole or (S)-2-(6-(4-(2-(trifluoromethoxy)phenyl)piperidin-1-yl)-2-azaspiro[3.4]octan-2-yl)-1,3,4-thiadiazole], in test [1], the “M1 FDSS PA” value stood at 77% and the EC50 came to 49 nM. Besides, in test [2], the “M5 FDSS PA” value is reported as 0% and the EC50 is above 25 µM.
Taken in the same sequence, the figures for `O=C(N1CC2(CC[C@@H](N3CCC(c4cc(F)ccc4OC4CC5(COC5)C4)CC3)C2)C1)C1(F)CC1` (single isomer, unassigned) [Example 11A, (R)-(6-(4-(2-((2-oxaspiro[3.3]heptan-6-yl)oxy)-5-fluorophenyl)piperidin-1-yl)-2-azaspiro[3.4]octan-2-yl)(1-fluorocyclopropyl)methanone or (S)-(6-(4-(2-((2-oxaspiro[3.3]heptan-6-yl)oxy)-5-fluorophenyl)piperidin-1-yl)-2-azaspiro[3.4]octan-2-yl)(1-fluorocyclopropyl)methanone] were 9%, above 25000 nM, 0% and above 25 µM.
The like results for `O=C(N1CC2(CC[C@@H](N3CCC(c4ccccc4OCC4CC4)CC3)C2)C1)C1(F)CC1` (single isomer, unassigned) [Example 7T, (R)-(6-(4-(2-(cyclopropylmethoxy)phenyl)piperidin-1-yl)-2-azaspiro[3.4]octan-2-yl)(1-fluorocyclopropyl)methanone or (R)-(6-(4-(2-(cyclopropylmethoxy)phenyl)piperidin-1-yl)-2-azaspiro[3.4]octan-2-yl)(1-fluorocyclopropyl)methanone] were, in that order, 32%, 4350 nM, 0% and above 25 µM.
Turning to `COc1ccccc1C1CCN([C@H]2CCC3(C2)CN(c2ncco2)C3)CC1` (single isomer, unassigned) [Example 10J, (S)-2-(6-(4-(2-methoxyphenyl)piperidin-1-yl)-2-azaspiro[3.4]octan-2-yl)oxazole or (R)-2-(6-(4-(2-methoxyphenyl)piperidin-1-yl)-2-azaspiro[3.4]octan-2-yl)oxazole], in test [1], the “M1 FDSS PA” value is given as 66% and the concentration giving a half-maximal response (EC50) came to 20 nM. In test [2], the “M5 FDSS PA” value was determined as 0% and the EC50 was 14.1 µM.

The values above are taken from patent US12122761B2, “2-azaspiro[3.4]octane derivatives as M4 agonists” (NOVARTIS AG, priority 2019, dated 2024).
